The test system of series [1] is HeLa. The experiment in a line: Antimitotic activity in human HeLa cells expressing GFP-tagged tubulin assessed as collapse of mitotic spindle during anaphase at 10 nM after 31 mins by fluorescence-based spinning-disk confocal microscopy. The format is functional, cell-based.
For series [2], the system named is HeLa. Kind of series: Antimitotic activity in human HeLa cells assessed as disproportionate mitotic cells at 10 nM after 16 hrs by Hoechst staining-based confocal microscopy. The format is functional, cell-based.
The test system of series [3] is HUVEC. Kind of series: Antivascular activity in growth factor-induced HUVEC after 45 hrs xCELLigence analysis. The format is functional, cell-based. The following applies: Homo sapiens.
Series [4] has as its system SK-OV-3. Kind of series: Cytotoxicity against taxol-resistant human SKOV3 cells assessed as cell viability after 48 hrs by MTS assay. It counts as functional, cell-based. To be noted: SK-OV-3, 48 h. For orientation: Tetrazolium assays rely on reduction of a dye to a coloured formazan, in cell work by metabolically active cells.
Series [5] relates to HeLa. Kind of series: Antimitotic activity in human HeLa cells expressing GFP-tagged tubulin assessed as disappearance of mitotic spindle during metaphase at 10 to 100 nM after 21 to 36 mins by fluorescence-based spinning-disk confocal microscopy. It counts as functional, cell-based.
Series [6] relates to SK-OV-3. The experiment in a line: Antimitotic activity in taxol-resistant human SKOV3 cells at 1 to 100 nM after 16 hrs by Hoechst staining-based confocal microscopy. The format is functional, cell-based.
Series [7] concerns SK-OV-3. Kind of series: Antimitotic activity in human SKOV3 cells at 1 to 100 nM after 16 hrs by Hoechst staining-based confocal microscopy. The format is functional, cell-based.
In series [8] the test system is HeLa. The experiment in a line: Antimitotic activity in human HeLa cells assessed as membrane blebbing at 0.1 to 1 uM after 16 hrs by Hoechst staining-based confocal microscopy. The format is functional, cell-based.
The subject of series [9] is HeLa. The experiment in a line: Cytotoxicity against human HeLa cells assessed as cell viability after 48 hrs by MTS assay. It counts as functional, cell-based.
Series [10] deals with HeLa. Kind of series: Antimitotic activity in human HeLa cells expressing GFP-tagged tubulin assessed as membrane blebbing during interphase at 10 nM after 51 mins by fluorescence-based spinning-disk confocal microscopy. It counts as functional, cell-based.
Series [11] has as its system SK-OV-3. Kind of series: Cell cycle arrest in human SKOV3 cells assessed as accumulation at S phase at 5 nM after 24 hrs by propidium iodide staining-based flow cytometry (reference value: 31.2%). The format is functional. Background: In flow cytometry, cells or beads pass a laser one at a time.
Series [12] deals with SK-OV-3. Kind of series: Cytotoxicity against human SKOV3 cells assessed as cell viability after 48 hrs by MTS assay. The format is functional, cell-based. To be noted: SK-OV-3, 48 h.
Series [13] concerns HeLa. Kind of series: Antimitotic activity in human HeLa cells assessed as depolymerisation of interphase microtubule network at 0.1 to 1 uM after 16 hrs by Hoechst staining-based confocal microscopy. It counts as functional, cell-based.
For series [14], the system named is SK-OV-3. The experiment in a line: Cell cycle arrest in human SKOV3 cells assessed as accumulation at G1 phase at 5 nM after 24 hrs by propidium iodide staining-based flow cytometry (reference value: 54.4%). It counts as functional.
Series [15] has as its system HeLa. Kind of series: Antimitotic activity in human HeLa cells expressing GFP-tagged tubulin assessed as membrane blebbing during interphase at 10 to 100 nM after 31 to 34 mins by fluorescence-based spinning-disk confocal microscopy. It counts as functional, cell-based.
Series [16] concerns SK-OV-3. Kind of series: Cell cycle arrest in human SKOV3 cells assessed as accumulation at G2/M phase at 5 nM after 24 hrs by propidium iodide staining-based flow cytometry (reference value: 13.6%). It counts as functional.
Another series deals with PBMC. Kind of series: Cytotoxicity in human PBMC assessed as cell viability up to 10 uM after 48 hrs by MTS assay. The format is cell-based.
Series [17] concerns HUVEC. Kind of series: Antiproliferative activity against growth factor-induced HUVEC assessed as growth inhibition after 48 hrs by MTS assay. The format is functional, cell-based. To be noted: Homo sapiens.
The subject of series [18] is HeLa. Kind of series: Antimitotic activity in human HeLa cells assessed as redistribution of microtubules around nuclear envelope of cells at 100 nM after 16 hrs by Hoechst staining-based confocal microscopy. It counts as functional, cell-based.
Series [19] relates to HUVEC. Kind of series: Antivascular activity in growth factor-induced HUVEC after 24 hrs xCELLigence analysis. It counts as functional, cell-based. The following applies: Homo sapiens.
In series [20] the test system is SK-OV-3. Kind of series: Cell cycle arrest in human SKOV3 cells assessed as accumulation at G2/M phase at 200 nM after 24 hrs by propidium iodide staining-based flow cytometry (reference value: 13.6%). The format is functional.
The next series has as its system K562. Kind of series: Cytotoxicity against human K562 cells. The format is functional, cell-based.
Series [21] relates to HeLa. The experiment in a line: Antimitotic activity in human HeLa cells assessed as depolymerisation of interphase microtubule network at 10 to 100 nM after 16 hrs by Hoechst staining-based confocal microscopy. The format is functional, cell-based.
The subject of series [22] is HeLa. The experiment in a line: Antimitotic activity in human HeLa cells assessed as change in interphase microtubule network at 1 nM after 16 hrs by Hoechst staining-based confocal microscopy. The format is functional, cell-based.

Active and inactive are the calls of the source. No cut-off for these calls is given here.

For the compound `COc1ccc(/C=C\c2cc(Br)c(OC)c(Br)c2)cc1O`, the result in the series with HeLa [1], in the series on HeLa [2], in the series with HeLa [5], in the series on SK-OV-3 [6], with SK-OV-3 [7] and in the series with HeLa [8] was Active. Besides, the outcome with HeLa [10], in the series on HeLa [13], in the series on HeLa [15] and in the series with HeLa [18] was Active. Besides, the EC50 (as a rule, the midpoint of the concentration-response curve) in the series with HUVEC [3] came to 1.1 nM; in the series on SK-OV-3 [4] it was 1.1 nM; with HeLa [9] it was 6.7 nM; in the series with SK-OV-3 [12], 1.7 nM; in the series with HUVEC [17], 0.2 nM; in the series on HUVEC [19], 2.2 nM. Also, the Activity is recorded as 21% in the series on SK-OV-3 [11], 25.7% in the series with SK-OV-3 [14], 51.5% with SK-OV-3 [16] and “Non-toxic” in the series with PBMC.
With `COc1ccc(/C=C\c2cc(I)c(OC)c(I)c2)cc1O`, the EC50 with HUVEC [3] and in the series on HUVEC [19] was 0.9 nM throughout. In addition, the values for the Activity in the series with SK-OV-3 [11], with SK-OV-3 [14] and in the series on SK-OV-3 [16] were 12.9%, 1.3% and 83.6%, respectively.
Regarding `COc1ccc(/C=C\c2cc(Cl)c(OC)c(Cl)c2)cc1O`, the EC50 with HUVEC [3] is 2.3 nM; in the series with HUVEC [19], 2.6 nM. Besides, the Activity is reported as 18.6% with SK-OV-3 [11], 43.7% with SK-OV-3 [14] and 32.2% in the series with SK-OV-3 [16].
Turning to `COc1ccc(/C=C\c2cc(F)c(OC)c(F)c2)cc1O`, the EC50 came out at 224 nM in the series with HUVEC [3] and 193 nM in the series on HUVEC [19]. Further, the Activity in the series with SK-OV-3 [20] stood at 73.7%.
Take `COc1ccc(/C=C\c2ccccc2)cc1O`: a half-maximal response with K562 (EC50) required 500 nM.
On the same count and under the same terms, for `COc1ccc(/C=C\c2cc(C)c(C)c(C)c2)cc1O` the value was 20 nM.
As to `COc1ccc(/C=C\c2cc(OC)c(OC)c(OC)c2)cc1O` [COMBRETASTATIN A4], the EC50 in the series on HUVEC [3] was determined as 0.9 nM; in the series with SK-OV-3 [4], 3.1 nM; in the series with K562 it was 1 nM; in the series with HeLa [9], 1.4 nM; in the series with SK-OV-3 [12] it was 1.2 nM; in the series on HUVEC [17], 3.2 nM. Also, a half-maximal effect with HUVEC [19] (EC50) was put at 1.9 nM. For the same compound, the result with HeLa [21] was Active. Also, the Activity in the series on SK-OV-3 [11] is 23.1%; with SK-OV-3 [14], 40.1%; in the series on SK-OV-3 [16], 30.5%; in the series on PBMC, “Non-toxic”. The result in the series with HeLa [22] was inactive.
In turn, `COc1ccc(/C=C\c2ccc(C)c(C)c2)cc1O` returned an EC50 with K562 of 70 nM.

For the origin of these results see ChEMBL document CHEMBL3217503, “Antivascular and anticancer activity of dihalogenated A-ring analogues of combretastatin A-4” (Medchemcomm, 2010).
